Data from US20230127944A1, “BROAD-SPECTRUM CARBAPENEMS” (priority 2019, published 2023).
In brackets after ≈: the same amount, converted by molar mass.

How the values were obtained:
Format in all cases: cell-based
[1] = tested on: S. aureus ATCC 33591 (methicillin-resistant); assay: broth microdilution MIC assay, S. aureus 33591; conditions: Staphylococcus aureus, ATCC33591; S. aureus 33591, methicillin-resistant; read-out: MIC, S. aureus 33591
How it was run: (§1)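 Steps: ≥5 colonies into cation-supplemented MH broth, shaken 3-5 h at 37° C; OD600-adjusted inoculum added to 2-fold compound dilutions (5×10^5 CFU/mL final); 16-20 h incubation at 37° C; visual MIC endpoint (no growth).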

[2] = tested on: P. aeruginosa ATCC 27853 (wild-type/QC strain); assay: broth microdilution MIC assay, P. aeruginosa 27853; conditions: Pseudomonas aeruginosa, ATCC27853; read-out: MIC, P. aeruginosa 27853
How it was run: as §1

[3] = tested on: E. coli ATCC 25922 (wild-type/QC strain); assay: broth microdilution MIC assay, E. coli 25922; conditions: Escherichia coli, ATCC25922; read-out: MIC, E. coli 25922
How it was run: as §1

P. aeruginosa Paeβ-17 = assay: broth microdilution MIC assay, P. aeruginosa Paeβ-17; conditions: Pseudomonas aeruginosa, read-out: MIC, P. aeruginosa Paeβ-17
How it was run: as §1

[4] = tested on: P. aeruginosa ΔmexAB-OprM (an efflux pump knockout); assay: broth microdilution MIC assay, P. aeruginosa ΔmexAB-OprM; conditions: Pseudomonas aeruginosa, read-out: MIC, P. aeruginosa ΔmexAB-OprM
How it was run: as §1

S. aureus USA 600 = assay: broth microdilution MIC assay, S. aureus USA600; conditions: Staphylococcus aureus; S. aureus USA600 (MRSA); read-out: MIC, S. aureus USA600
How it was run: as §1

[5] = tested on: P. aeruginosa 35151 (hyper-permeable strain); assay: broth microdilution MIC assay, P. aeruginosa 35151; conditions: Pseudomonas aeruginosa, read-out: MIC, P. aeruginosa 35151
How it was run: as §1

S. aureus USA 300 = assay: broth microdilution MIC assay, S. aureus USA300; conditions: Staphylococcus aureus; S. aureus USA300 (MRSA); read-out: MIC, S. aureus USA300
How it was run: as §1

Row | Compound | MIC [1] [µg/mL] | MIC [2] [µg/mL] | MIC [3] [µg/mL] | MIC (P. aeruginosa Paeβ-17) [µg/mL] | MIC [4] [µg/mL] | MIC (S. aureus USA 600) [µg/mL] | MIC [5] [µg/mL] | MIC (S. aureus USA 300) [µg/mL]
1 | C[C@@H](O)[C@H]1C(=O)N2C(C(=O)O)=C(S[C@@H]3CCN(C[C@H]4CC[C@@H](CN)CC4)C3)[C@H](C)[C@H]12 [Example 45, (4R,5S,6S)-3-(((R)-1-(((1S,4S)-4-(aminomethyl)cyclohexyl)methyl)pyrrolidin-3-yl)thio)-6-((R)-1-hydroxyethyl)-4-methyl-7-oxo-1-azabicyclo[3.2.0]hept-2-ene-2-carboxylic acid] | 1 to 4 (≈ 2.29 to 9.14 µM) | 1 to 4 (≈ 2.29 to 9.14 µM) | < 1 | 8 to 32 (≈ 18.3 to 73.1 µM) | 1 to 4 (≈ 2.29 to 9.14 µM) | 1 to 4 (≈ 2.29 to 9.14 µM) | < 1 | 1 to 4 (≈ 2.29 to 9.14 µM)
2 | C[C@@H](O)[C@H]1C(=O)N2C(C(=O)O)=C(SC3CN(C[C@H]4CCN(C(=N)N)C4)C3)[C@H](C)[C@H]12 [Example 46, (4R,5S,6S)-3-((1-(((R)-1-carbamimidoylpyrrolidin-3-yl)methyl)azetidin-3-yl)thio)-6-((R)-1-hydroxyethyl)-4-methyl-7-oxo-1-azabicyclo[3.2.0]hept-2-ene-2-carboxylic acid] | 1 to 4 (≈ 2.36 to 9.44 µM) | 1 to 4 (≈ 2.36 to 9.44 µM) | < 1 | 8 to 32 (≈ 18.9 to 75.6 µM) | 1 to 4 (≈ 2.36 to 9.44 µM) | 1 to 4 (≈ 2.36 to 9.44 µM) | < 1 | 1 to 4 (≈ 2.36 to 9.44 µM)
3 | CNC[C@H]1CC[C@H](CN2CC(SC3=C(C(=O)O)N4C(=O)[C@H]([C@@H](C)O)[C@H]4[C@H]3C)C2)CC1 [Example 47, (4R,5S,6S)-6-((R)-1-hydroxyethyl)-4-methyl-3-((1-(((1r,4R)-4-((methylamino)methyl)cyclohexyl)methyl)azetidin-3-yl)thio)-7-oxo-1-azabicyclo[3.2.0]hept-2-ene-2-carboxylic acid] | 1 to 4 (≈ 2.29 to 9.14 µM) | 1 to 4 (≈ 2.29 to 9.14 µM) | < 1 | 8 to 32 (≈ 18.3 to 73.1 µM) | 1 to 4 (≈ 2.29 to 9.14 µM) | 1 to 4 (≈ 2.29 to 9.14 µM) | < 1 | 1 to 4 (≈ 2.29 to 9.14 µM)
4 | C[C@@H](O)[C@H]1C(=O)N2C(C(=O)O)=C(S[C@H]3C[C@H](NC4CCN(C(=N)N)CC4)C3)[C@H](C)[C@H]12 [Example 48, (4R,5S,6S)-3-(((1R,3R)-3-((1-carbamimidoylpiperidin-4-yl)amino)cyclobutyl)thio)-6-((R)-1-hydroxyethyl)-4-methyl-7-oxo-1-azabicyclo[3.2.0]hept-2-ene-2-carboxylic acid] | 8 to 32 (≈ 18.3 to 73.1 µM) | 8 to 32 (≈ 18.3 to 73.1 µM) | < 1 | 8 to 32 (≈ 18.3 to 73.1 µM) | 1 to 4 (≈ 2.29 to 9.14 µM) | 1 to 4 (≈ 2.29 to 9.14 µM) | < 1 | 1 to 4 (≈ 2.29 to 9.14 µM)
5 | C[C@@H](O)[C@H]1C(=O)N2C(C(=O)O)=C(S[C@@H]3CC[C@H](NC4CCN(C(=N)N)CC4)C3)[C@H](C)[C@H]12 [Example 49, (4R,5S,6S)-3-(((1R,3S)-3-((1-carbamimidoylpiperidin-4-yl)amino)cyclopentyl)thio)-6-((R)-1-hydroxyethyl)-4-methyl-7-oxo-1-azabicyclo[3.2.0]hept-2-ene-2-carboxylic acid] | 1 to 4 (≈ 2.21 to 8.86 µM) | 1 to 4 (≈ 2.21 to 8.86 µM) | < 1 | 8 to 32 (≈ 17.7 to 70.9 µM) | 1 to 4 (≈ 2.21 to 8.86 µM) | 1 to 4 (≈ 2.21 to 8.86 µM) | < 1 | 1 to 4 (≈ 2.21 to 8.86 µM)
6 | C[C@@H](O)[C@H]1C(=O)N2C(C(=O)O)=C(S[C@@H]3CC[C@H](NC4CCNCC4)C3)[C@H](C)[C@H]12 [Example 50, (4R,5S,6S)-6-((R)-1-hydroxyethyl)-4-methyl-7-oxo-3-(((1R,3S)-3-(piperidin-4-ylamino)cyclopentyl)thio)-1-azabicyclo[3.2.0]hept-2-ene-2-carboxylic acid] | 1 to 4 (≈ 2.44 to 9.77 µM) | 8 to 32 (≈ 19.5 to 78.1 µM) | < 1 | 8 to 32 (≈ 19.5 to 78.1 µM) | 1 to 4 (≈ 2.44 to 9.77 µM) | 1 to 4 (≈ 2.44 to 9.77 µM) | < 1 | 1 to 4 (≈ 2.44 to 9.77 µM)
